Reference: patent publication US4783480A, “6-keto-prostaglandin E1 derivatives” (Ono Pharmaceutical Co., Ltd., priority 1986, dated 1988)

Legend:
blood pressure = experiment: hypotensive activity in the anesthetized dog, intravenous administration; format: in vivo; conditions: relative to PGE1 = 1
Protocol: (ii) hypotensive activity in dogs and
(ii) Hypotensive activity was measured in the anesthetized dog by intravenous administration, and as active control, PGE1 was used.

[1] = system: blood platelet aggregation induced by ADP; experiment: inhibitory activity of blood platelet aggregation induced by ADP in rats; format: cell-based, rat; conditions: relative to PGE1 = 1
Text: (iii) inhibitory activity of blood platelet aggregation induced by ADP in rats. The experimental methods are described hereinafter.
(iii) The concentrations required to inhibit blood platelet aggregation induced in rats by ADP (adenosine diphosphate) are shown relative to PGE1.

[2] = system: carbon tetrachloride-induced acute liver damage (plasma GOT and GPT); experiment: cytoprotective activity in carbon tetrachloride-induced acute liver damage in rats; format: in vivo, rat; conditions: for minimal effective dose: Rattus norvegicus, sc, rats, dosed three times (0, 6, 12 hrs), read-out: Inhibiting activity of CCl4 induced liver damage, minimum effective dose; for activity in the inhibition of liver damage induced by carbon tetrachloride compared with compounds (d) and (e): words
Protocol: (i) cytoprotective activity in carbon tetrachloride-induced acute liver damage in rats.
(i) Inhibitory activity on liver damage induced by carbon tetrachloride.
A solution of carbon tetrachloride (2000 μl) dissolved in olive oil (10 ml) was administered to Wistar male rates (body weight 190-220 g) at a rate of 2000 μl/kg animal body weight by intraperitoneal injection.
A solution of a compound of the present invention or of one of the comparison compounds in olive oil (2 ml/kg animal body weight) was administered three times, at the same time as, and then 6 hrs and 12 hrs after, the dosage of carbon tetrachloride, and blood was collected twice after 24 hrs and 48 hrs after the first dosage. The blood was centrifuged and plasma GOT (glutamic oxalacetic transaminase) activity and plasma GPT (glutamic pyruvic transaminase) activity were measured.

[3] = toxicity (LD50) by intravenous administration in mice; conditions: mouse, in vivo

| SMILES | Hypotensive activity (PGE1 = 1) (blood pressure) | Inhibiting activity of blood platelet aggregation (PGE1 = 1) [1] | minimal effective dose [2] | activity in the inhibition of liver damage induced by carbon tetrachloride compared with compounds (d) and (e) [2] | LD50 [3] |
| --- | --- | --- | --- | --- | --- |
| CCCC[C@H](C)C[C@H](O)/C=C/[C@H]1[C@H](O)CC(=O)[C@@H]1CC(=O)CCCCC(=O)N[C@@H](Cc1ccccc1)C(=O)OC [Example 2(a), N[(13E)-(11α,15α,17S)6,9-dioxo-11,15-dihydroxy-17,20-dimethylprost-13-en-1-oyl]-L-phenylalanine methyl ester] | 0.014 | 0.0053 | 0.03 mg/kg | almost the same activity |  |
| CCCCC(C)C[C@H](O)/C=C/[C@H]1[C@H](O)CC(=O)[C@@H]1CC(=O)CCCCC(=O)O (some centres unmarked) [(d), reference compound] | 21 | 68 | 0.03 mg/kg |  |  |
| CCCC[C@H]1CC[C@H]([C@H](O)/C=C/[C@H]2[C@H](O)CC(=O)[C@@H]2CC(=O)CCCCC(=O)N[C@@H](Cc2ccccc2)C(=O)O)C1 [Example 1, N-[(13E)-(11α,15α,16S,18S)-6,9-dioxo-11,15-dihydroxy-16,18-ethano-20-ethylprost-13-en-1-oyl]-L-phenylalanine] | 0.03 | 0.01 | < 0.01 mg/kg | almost the same activity | 22 mg/kg |
| CCCC[C@H]1CC[C@H]([C@H](O)/C=C/[C@H]2[C@H](O)CC(=O)[C@@H]2CC(=O)CCCCC(=O)O)C1 [(e), reference compound] | 24.5 | 506 | 0.005 mg/kg |  |  |
| CCCC[C@H]1CC[C@H]([C@H](O)/C=C/[C@H]2[C@H](O)CC(=O)[C@@H]2CC(=O)CCCCC(=O)N[C@@H](CC(C)C)C(=O)O)C1 [1(b), N-[(13E)-(11α,15α,16S,18S)-6,9-dioxo-11,15-dihydroxy-16,18-ethano-20-ethylprost-13-en-1-oyl]-L-leucine] | 0.01 | 0.01 | < 0.01 mg/kg | almost the same activity | 30 mg/kg |
